# Reference: US11470844B2, “Vespidae wasp repellent” (KINP CO., LTD, priority 2015, dated 2022)
# Legend:
# Vespa mandarinia worker = experiment: Black ball nest disturbance, Experiment 1 (ball with adsorbed alarm pheromone); assay type: in vivo; conditions: for total number of workers alighting on the black ball for attack: alarm pheromone adsorbed ball
# Protocol: The experiment was conducted with utilizing a nest of Vespa mandarinia found in Kagawa Prefecture Kinbuchi Forest Park in Takamatsu City Kagawa Prefecture on Oct. 24, 2014. Since the nest was built in the ground, the nest could not be found except for the entrance thereof.
# A vinyl ball of which diameter was 13 cm and which was coated with black lacquer was hung on the tip of a fishing rod having a length of 11 m. Hereinafter, the ball was abbreviated as “black ball”. After distilled water was sprayed on the entire surface, the vicinity of the nest entrance was disturbed by using the black ball. Specifically, the nest was disturbed by vibrating the black ball about 50 cm before the nest entrance in the air for about 10 seconds or vibrating the black ball in contact with the nest entrance for about 10 seconds. After the black ball was vibrated in the above-described conditions for about 10 seconds, the black ball was moved to the air of about 1 m before the nest entrance, and the behavior of the Vespa mandarinia worker against the black ball was shot and recorded for 2 minutes with a video camera. In the above condition, both of the black balls used in both conditions were attacked by the Vespa mandarinia workers and it is considered that the alarm pheromone was adsorbed on the black balls. Then, the black ball was kept away from the nest so that all the Vespa mandarinia workers were separated, 2-phenylethanol was sprayed on the entire surface, and the behavior of the workers against the black ball was similarly observed. The total number of workers alighting on the surface of the hemispherical side observable by the video image for attack during the vibration of the black ball was counted.
# [1] = tested on: Vespa analis insularis (Fabricius) nest; experiment: Spraying on nest surface, philopatry and homing, Experiment 2; assay type: in vivo
# Description: The inventors investigated the worker's philopatry and homing circumstance to the nest as follows. After the above-described experiment 1, benzyl alcohol was intermittently sprayed three times on the entire surface of the same nest of Vespa analis insularis (Fabricius) by using a sprayer equipped with a nozzle having a length of 1.5 m. An adult wasp on the nest surface, worker entering and leaving the nest holes and worker coming close to the nest were shot with a video camera. The experiment was started at 14:01:30 and finished at 14:10. The numbers of the adult wasp on the nest surface and in the nest were counted immediately after the experiment. The number of adult wasp in the nest was counted by inserting the whole nest in a paper bag, sealing the paper bag, and then deconstructing the nest.
# [2] = tested on: P. jokahamae jokahamae Radoszkowski worker; experiment: Spray on worker collecting Zelkova sap; assay type: in vivo, Polistes jokahamae jokahamae Radoszkowski
# Protocol: The experiment involving a worker group of Polistes jokahamae jokahamae Radoszkowski on the exterior wall of a nest found in the campus of Faculty of Agriculture, Kochi University, located on 200 Otsu, Monobe, Nankoku City, Kochi Prefecture, was conducted on Jul. 13, 2015, and the experiment involving a worker of P. jokahamae jokahamae Radoszkowski which collected sap bled from sucking mark by adult Cryptotympana facialis of Zelkova tree stem planted in a private house in Fuseishi-cho, Takamatsu City, Kagawa Prefecture was conducted on July 19 to 22, 2015. In addition, the experiment involving a worker group of P. chinensis antennalis Pe'rez on the exterior wall of a nest found on a branch of a cheesewood planted at a bank of Noda pond located at Fuseishi-cho, Takamatsu City, Kagawa Prefecture was conducted on Jul. 30, 2015.
# The experiment was conducted in accordance with the above-described Example 1(1) involving a Vespa mandarinia worker, distilled water as a control example spray and benzyl alcohol as a test liquid example spray were sequentially sprayed on a test object group or a test object worker by using a sprayer, and the behavior from immediately after spraying up to 1 minute later was respectively recorded.
# [3] = after first spray, 14:01:30 to 14:02:20
# [4] = after second spray, 14:02:20 to 14:04:30
# [5] = after third spray, 14:04:30 to 14:10:00
SMILES,total number of workers alighting on the black ball for attack (Vespa mandarinia worker; Vibration in contact with nest entrance),total number of workers alighting on the black ball for attack (Vespa mandarinia worker; Vibration in the air before nest entrance),distance from the surface of the black ball at which workers changed direction and flew away (Vespa mandarinia worker; in vivo),"adult wasps on nest surface and in nest at the end of the experiment ([1]; 14:10, after three sprays)","Entered nest [1, 3]","Flew away from nest [1, 3]","Flew to and alighted on nest surface and then flew away [1, 3]","Flew to and came close to nest surface and then flew away [1, 3]","Entered nest [1, 4]","Flew away from nest [1, 4]","Flew to and alighted on nest surface and then flew away [1, 4]","Flew to and came close to nest surface and then flew away [1, 4]","Entered nest [1, 5]","Flew away from nest [1, 5]","Flew to and alighted on nest surface and then flew away [1, 5]","Flew to and came close to nest surface and then flew away [1, 5]",Effective (number of worker) ([2]; 10 workers collecting sap),No response (number of worker) ([2]; 10 workers collecting sap),"time of flapping behavior before the worker flew away ([2]; 10 workers, or without flapping) [s]"
"OCCc1ccccc1 [2-Phenylethanol, 2-phenylethanol]",0,0,about 10 cm,–,–,–,–,–,–,–,–,–,–,–,–,–,–,–,–
"OCc1ccccc1 [Benzyl alcohol, benzyl alcohol]",–,–,–,All of the adult wasps got away from the nest,5,15,1,2,0,10,2,6,0,2,4,55,10,0,≤ 1
